Source: US11008340B2, “Modulators of ROR-gamma” (Vitae Pharmaceuticals, LLC, priority 2015, dated 2021)
pKi: −log10 of the molar value.

target: T1, recombinant RORγ Ligand Binding Domain (LBD) protein (Homo sapiens, UniProt P51449); test: Radio-Ligand RORγ Binding Assay (Assay 1); details: competition with 25-hydroxy [26,27-3H]-cholesterol, SPA; class symbols; read-out: Avg ROR Bind Ki
T1 construct: 6×His; GST
T1 sequence (P51449 269-508 limits assumed): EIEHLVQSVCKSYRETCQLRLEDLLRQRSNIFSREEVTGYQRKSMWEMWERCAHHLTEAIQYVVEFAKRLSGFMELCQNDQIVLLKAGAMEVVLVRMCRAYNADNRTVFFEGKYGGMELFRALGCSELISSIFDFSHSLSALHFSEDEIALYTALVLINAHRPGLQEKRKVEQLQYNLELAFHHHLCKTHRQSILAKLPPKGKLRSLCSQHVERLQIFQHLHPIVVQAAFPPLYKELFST
Method: Radio-Ligand RORγ Binding Assay (Assay 1)
Compounds described herein were tested for ability to bind to RORγ in a cell-free competition assay with commercially available radio-ligand (RL), 25-hydroxy [26,27-^3H]-cholesterol (PerkinElmer, Cat. #NET674250UC), for a ligand binding site on a recombinant RORγ Ligand Binding Domain (LBD) protein expressed as a 6×His-Glutathione-S-Transferase (GST) fusion. The assay was performed in 96-well SPA plates (PerkinElmer, Cat. #1450-401) in 50 mM HEPES buffer, pH 7.4, containing 150 mM NaCl, 5 mM MgCl2, 10% (v/v) glycerol, 2 mM CHAPS, 0.5 mM 3-octylglucopyranoside and 5 mM DTT. Tested compounds were dissolved in DMSO, and semi-log (3.162×) serial dilutions of the compounds were prepared in the same solvent. Two μL of the DMSO solutions were mixed with 28 μL of 8.6 nM 25-hydroxy [26,27-^3H]-cholesterol and 50 μL of 24 nM RORγ LBD. The plate was shaken at 700 rpm for 20 min and incubated for 10 min at rt, after which 40 μL of poly-Lys YSi SPA beads (PerkinElmer, Cat. #RPNQ0010) were added to achieve 50 μg of the beads per well. The plate was incubated on an orbital shaker for 20 min and then for 10 min without agitation at rt. SPA signal for tritium beta radiation was registered on PerkinElmer Microbeta plate reader. […] The percent inhibition vs. concentration data were fit into a four-parameter model, and IC50 values were calculated from the fit as the concentrations corresponding to the inflection points on the dose-response curves. Inhibitory constants (Ki) were calculated using the following equation, where [RL] is the concentration in the assay and KD is a dissociation constant of 25-hydroxy [26,27-^3H]-cholesterol: […]

SMILES | pKi
CCS(=O)(=O)c1ccc([C@H](CO)NC(=O)c2ccc3c(OC[C@H]4CC[C@H](C(F)(F)F)CC4)ncnc3c2)cc1 [Hy1C-1, N-((R)-1-(4-(ethylsulfonyl)phenyl)-2-hydroxyethyl)-4-(((1r,4R)-4-(trifluoromethyl)cyclohexyl)methoxy)quinazoline-7-carboxamide] | 6.00 to 7.00
CCS(=O)(=O)c1ccc(CNC(=O)c2ccc3c(OC[C@H]4CC[C@H](C(F)(F)F)CC4)ncnc3c2)cc1 [Hy1C-2, N-(4-(ethylsulfonyl)benzyl)-4-(((1r,4r)-4-(trifluoromethyl)cyclohexyl)methoxy)quinazoline-7-carboxamide] | 6.00 to 7.00

same assay, conditions: radio-ligand competition, 25-hydroxy [26,27-3H]-cholesterol, RORγ LBD; read-out: Avg ROR Bind Ki

SMILES | pKi
CCS(=O)(=O)c1ccc(CNC(=O)c2ccc3c(c2)CN(c2ncc(-c4ccnc(OC)c4)cn2)C[C@@H]3C(C)C)cc1 (single isomer, unassigned) [Hy7-23.2] | 6.00 to 7.00
CCS(=O)(=O)c1ccc(CNC(=O)c2ccc3c(c2)CN(c2ncc(-c4ccc(=O)n(C)c4)cn2)C[C@@H]3C(C)C)cc1 (single isomer, unassigned) [Hy7-24.2] | < 6.00
CCS(=O)(=O)c1ccc(CNC(=O)c2ccc3c(c2)CN(c2ncc(-c4ccn(C)c(=O)c4)cn2)C[C@@H]3C(C)C)cc1 (single isomer, unassigned) [Hy7-25.2] | < 6.00
CC[C@@H]1CN(C2CCOCC2)Cc2cc(C(=O)N[C@@H](CO)c3ccc(S(=O)(=O)CC)cc3)ccc21 (single isomer, unassigned) [Hy7-30.1] | 6.00 to 7.00
CC[C@H]1CN(C2CCC(F)(F)CC2)Cc2cc(C(=O)N[C@@H](CO)c3ccc(S(=O)(=O)CC)cc3)ccc21 (single isomer, unassigned) [Hy7-32.2] | 6.00 to 7.00
CCOC(=O)c1cnc(N2Cc3cc(C(=O)N[C@@H](CO)c4ccc(S(=O)(=O)CC)cc4)ccc3[C@@H](CC)C2)nc1 (single isomer, unassigned) [Hy7-34.2] | > 7.00
CCC1CN(C2CCC(C(F)(F)F)CC2)Cc2cc(C(=O)NC(CO)c3ccc(S(=O)(=O)CC)cc3)ccc21 (single isomer, unassigned) [Hy7-35.3] | > 7.00
CCC1CN(C2CCC(C(F)(F)F)CC2)Cc2cc(C(=O)NC(CO)c3ccc(S(=O)(=O)CC)cc3)ccc21 (single isomer, unassigned) [Hy7-35.4] | 6.00 to 7.00
CC[C@H]1CN(c2ncc(C(F)(F)F)cc2C#N)Cc2cc(C(=O)N[C@@H](CO)c3ccc(S(=O)(=O)CC)cc3)ccc21 (single isomer, unassigned) [Hy7-37.2] | > 7.00
CCS(=O)(=O)c1ccc(CNC(=O)c2ccc3c(Oc4ccc(C(F)(F)F)cc4)nccc3c2)cc1 [Hy1A-2, N-(4-(ethylsulfonyl)benzyl)-1-(4-(trifluoromethyl)phenoxy)isoquinoline-6-carboxamide] | 6.00 to 7.00
CCS(=O)(=O)c1ccc(CNC(=O)c2ccc3c(OCc4ccc(C(F)(F)F)cc4)cc(C)nc3c2)cc1 [Hy1B-1, N-(4-(ethylsulfonyl)benzyl)-2-methyl-4-((4-(trifluoromethyl)benzyl)oxy)quinoline-7-carboxamide] | 6.00 to 7.00
CCS(=O)(=O)c1ccc(CNC(=O)c2ccc3c(OC[C@H]4CC[C@H](C(F)(F)F)CC4)cc(C)nc3c2)cc1 [Hy1B-2, N-(4-(ethylsulfonyl)benzyl)-2-methyl-4-(((1r,4r)-4-(trifluoromethyl)cyclohexyl)methoxy)quinoline-7-carboxamide] | 6.00 to 7.00
CCS(=O)(=O)c1ccc([C@H](CO)NC(=O)c2ccc3c(OC[C@H]4CC[C@H](C(F)(F)F)CC4)cc(C)nc3c2)cc1 [Hy1B-4, N-((R)-1-(4-(ethylsulfonyl)phenyl)-2-hydroxyethyl)-2-methyl-4-(((1r,4R)-4-(trifluoromethyl)cyclohexyl)methoxy)quinoline-7-carboxamide] | 6.00 to 7.00
CCS(=O)(=O)c1ccc(CNC(=O)c2cnc3c(C4CC4)n(C[C@H]4CC[C@H](C(F)(F)F)CC4)nc3c2)nc1 [Hy3B-3, 3-cyclopropyl-N-((5-(ethylsulfonyl)pyridin-2-yl)methyl)-2-(((1r,4r)-4-(trifluoromethyl)cyclohexyl)methyl)-2H-pyrazolo[4,3-b]pyridine-6-carboxamide] | 6.00 to 7.00
CCS(=O)(=O)c1ccc([C@H](CO)NC(=O)c2cnc3c(C4CC4)n(C[C@H]4CC[C@H](C(F)(F)F)CC4)nc3c2)nc1 [Hy3B-4, 3-cyclopropyl-N-((R)-1-(5-(ethylsulfonyl)pyridin-2-yl)-2-hydroxyethyl)-2-(((1r,4R)-4-(trifluoromethyl)cyclohexyl)methyl)-2H-pyrazolo[4,3-b]pyridine-6-carboxamide] | > 7.00
CCS(=O)(=O)c1ccc(CNC(=O)c2cn(C)c3c(Oc4ccc(C(F)(F)F)cc4)nccc23)cc1 [Hy5-1, N-(4-(ethylsulfonyl)benzyl)-1-methyl-7-(4-(trifluoromethyl)phenoxy)-1H-pyrrolo[2,3-c]pyridine-3-carboxamide] | 6.00 to 7.00
CCS(=O)(=O)c1ccc(CNC(=O)c2c[nH]c3c(OC[C@H]4CC[C@H](C(F)(F)F)CC4)nccc23)cc1 [Hy5-2, N-(4-(ethylsulfonyl)benzyl)-7-(((1r,4r)-4-(trifluoromethyl)cyclohexyl)methoxy)-1H-pyrrolo[2,3-c]pyridine-3-carboxamide] | 6.00 to 7.00
CCS(=O)(=O)c1ccc(CNC(=O)c2cn(C)c3c(OC[C@H]4CC[C@H](C(F)(F)F)CC4)nccc23)cc1 [Hy5-4, N-(4-(ethylsulfonyl)benzyl)-1-methyl-7-(((1r,4r)-4-(trifluoromethyl)cyclohexyl)methoxy)-1H-pyrrolo[2,3-c]pyridine-3-carboxamide] | 6.00 to 7.00
CCS(=O)(=O)c1ccc([C@H](CO)NC(=O)c2cn(C)c3c(OC[C@H]4CC[C@H](C(F)(F)F)CC4)nccc23)cc1 [Hy5-5, N-((R)-1-(4-(ethylsulfonyl)phenyl)-2-hydroxyethyl)-1-methyl-7-(((1r,4R)-4-(trifluoromethyl)cyclohexyl)methoxy)-1H-pyrrolo[2,3-c]pyridine-3-carboxamide] | 6.00 to 7.00
CCS(=O)(=O)c1ccc(CNC(=O)c2cnc3c(c2)CN(c2ncc(C(F)(F)F)cn2)CC3(C)C)cc1 [Hy7B-1, N-(4-(ethylsulfonyl)benzyl)-8,8-dimethyl-6-(5-(trifluoromethyl)pyrimidin-2-yl)-5,6,7,8-tetrahydro-1,6-naphthyridine-3-carboxamide] | 6.00 to 7.00

same assay, conditions: radio-ligand competition, RORγ LBD; head without unit (Tables 15, 17); read-out: Avg ROR Bind Ki

SMILES | pKi
CCS(=O)(=O)c1ccc(CNC(=O)c2cc3ccnc(OC[C@H]4CC[C@H](C(F)(F)F)CC4)c3[nH]2)cc1 [Hy4-5, N-(4-(ethylsulfonyl)benzyl)-7-(((1r,4r)-4-(trifluoromethyl)cyclohexyl)methoxy)-1H-pyrrolo[2,3-c]pyridine-2-carboxamide] | 6.00 to 7.00
